{
  "source": "patent US11149004B2",
  "about": "“Crystalline form of EB-1020, processes for preparation and use thereof” (priority 2017, dated 2021)",
  "key": {"[1]": {"test": "Grinding stability of Form CS1, prior art Form A and Form B", "format": "physicochemical", "conditions": "ground manually for 5 minutes in a mortar, XRPD, hydrochloride", "experimental": "A certain amount of Form CS1, prior art Form A and Form B were ground manually for 5 minutes in a mortar. The XRPD patterns of Form CS1 before and after grinding are as depicted in FIG. 8 (top: before grinding; bottom: after grinding). The XRPD patterns of prior art Form A before and after grinding are as depicted in FIG. 9 (top: before grinding; bottom: after grinding). The XRPD patterns of prior art Form B before and after grinding are as depicted in FIG. 10 (top: before grinding; bottom: after grinding)."}, "[2]": {"test": "Adhesiveness of Form CS1 (material sticking to the punch)", "format": "physicochemical", "experimental": "30 mg of Form CS1 were weighed and then added into the dies of φ8 mm round tooling, compressed at 10 KN and held for 30s. The punch was weighed and the amount of material sticking to the punch was calculated. The compression was repeated twice and the cumulative amount, maximum amount and average amount of material sticking to the punch during the compression were recorded."}, "[3]": {"test": "Kinetic solubility in FaSSIF and FeSSIF", "format": "physicochemical", "conditions": "for Solubility (mg/mL) eSSIF / Solubility (mg/mL) FaSSIF: hydrochloride", "excerpt": "High Performance Liquid Chromatography (HPLC) data for solubility test in the present disclosure were collected from an Agilent 1260 with Diode Array Detector (DAD). The method parameters are as follows:\nSimulated gastrointestinal fluids such as FaSSIF (Fasted state simulated intestinal fluids) and FeSSIF (Fed state simulated intestinal fluids) are biorelevant media. Solubility in such media is close to in vivo solubility, because these media can reflect the effects of intestinal environment on drug release better.\nA certain amount of Form CS1, prior art Form A and Form B were suspended in FaSSIF and FeSSIF to get saturated solutions. After equilibration for 4 h, concentrations (mg/mL) of the saturated solutions were measured by HPLC."}, "[4]": {"test": "Morphology (polarizing microscope, PLM)", "format": "physicochemical", "excerpt": "Morphology of Form CS1 of the present disclosure was checked by a polarizing microscope (PLM), and the PLM image is shown in FIG. 11. […] Form CS1 has better flowability and is more suitable for processing and preparing drug product."}, "[5]": {"test": "Physical stability of Form CS1 under different pressures (tableting)", "format": "physicochemical", "conditions": "for Crystalline form after tableting: XRPD", "excerpt": "A certain amount of Form CS1 were compressed into pellets under different pressures with suitable tableting die. Crystalline forms before and after tableting were checked by XRPD."}, "[6]": {"test": "Compressibility of Form CS1 (tensile strength)", "format": "physicochemical", "experimental": "A manual tablet press was used for compression. A certain amount of Form CS1 were added into the dies of round tooling and compressed at certain pressure manually, the tablet was stored in a desiccator for 24 h until complete elastic recovery. Hardness (H) was tested with an Intelligent Tablet Hardness Tester. Diameter (D) and thickness (L) were tested with a caliper. Tensile strength of the powder was calculated with the following formula: T=2H/πDL. Under a certain force, the greater the tensile strength, the better the compressibility."}, "[7]": {"conditions": "according to WO2016205762A paragraph [00179]; cited from earlier work"}, "[8]": {"conditions": "40° C./75% RH, two weeks; per WO2016205762A paragraph [00232]; cited from earlier work"}, "[9]": {"test": "Storage stability of prior art Form C", "format": "physicochemical", "conditions": "room temperature, a month; found by the inventors", "excerpt": "The prior art WO2016205762A disclosed Form A, Form B and Form C of EB-1020."}, "[10]": {"conditions": "30 mg, φ8 mm round tooling, 10 KN, held 30s"}, "[11]": {"conditions": "φ6 mm round tooling, 80 mg, 10 kN, after 24 h elastic recovery"}, "[12]": {"conditions": "FaSSIF, equilibration 4 h, HPLC"}},
  "note": "“Also recorded” adds a separate entry of the source. Where two headings read alike, the source gives them in different places. Marks after values point to notes of the source that are not given here.",
  "data": [
    {"smiles": "Cl.c1ccc2cc([C@]34CNC[C@H]3C4)ccc2c1", "note": "[Form CS1, (1R,5S)-1-(naphthalen-2-yl)-3-azabicyclo[3.1.0]hexane hydrochloride]", "values": [
      {"measurement": "Crystalline form after grinding", "setting": "[1]", "result": "remains unchanged"},
      {"measurement": "Crystallinity after grinding", "setting": "[1]", "result": "remained substantially unchanged; also recorded: little change in crystallinity"},
      {"measurement": "Adhesiveness", "setting": "[2]", "result": "low adhesiveness"},
      {"measurement": "Average amount (mg) of material sticking to the punch", "setting": "[2]; [10]", "result": "0* mg"},
      {"measurement": "Cumulative amount (mg) of material sticking to the punch", "setting": "[2]; [10]", "result": "0* mg"},
      {"measurement": "Maximum amount (mg) of material sticking to the punch", "setting": "[2]; [10]", "result": 0.07, "unit": "mg"},
      {"measurement": "solubility at 4 h", "setting": "[3]; FaSSIF (fasted state simulated intestinal fluid), fassif, thermodynamic from solid, FaSSIF, equilibration 4 h, HPLC, read-out: Solubility (mg/mL) FaSSIF", "result": 75.3, "unit": "mg/mL"},
      {"measurement": "Solubility compared with prior art Form A and Form B", "setting": "[3]; FaSSIF and FeSSIF", "result": "higher"},
      {"measurement": "Solubility relative to prior art Form A and Form B", "setting": "[3]; FeSSIF", "result": "almost twice"},
      {"measurement": "Solubility (mg/mL) eSSIF", "setting": "[3]; equilibration 4 h, HPLC", "result": 74.8, "unit": "mg/mL"},
      {"measurement": "Morphology", "setting": "[4]", "result": "spherical or short rod-like crystal"},
      {"measurement": "Crystalline form after tableting", "setting": "[5]; Pressure 3 kN", "result": "Form CS1"},
      {"measurement": "Crystalline form after tableting", "setting": "[5]; Pressure 7 kN", "result": "Form CS1"},
      {"measurement": "Crystalline form after tableting", "setting": "[5]; Pressure 14 kN", "result": "Form CS1"},
      {"measurement": "Crystalline form after compression into tablets under different pressures", "setting": "[5]; different pressures", "result": "remains unchanged"},
      {"measurement": "Compressibility", "setting": "[6]", "result": "good compressibility"},
      {"measurement": "Tensile strength (MPa)", "setting": "[6]; T=2H/πDL, φ6 mm round tooling, 80 mg, 10 kN", "result": 1.04, "unit": "MPa"},
      {"measurement": "Diameter (mm)", "setting": "[6]; [11]", "result": 6.95, "unit": "mm"},
      {"measurement": "Thickness (mm)", "setting": "[6]; [11]", "result": 2.40, "unit": "mm"}
    ]},
    {"smiles": "Cl.c1ccc2cc([C@]34CNC[C@H]3C4)ccc2c1", "note": "[prior art Form B, (1R,5S)-1-(naphthalen-2-yl)-3-azabicyclo[3.1.0]hexane hydrochloride, reference compound]", "values": [
      {"measurement": "Crystalline form after grinding", "setting": "[1]", "result": "changed"},
      {"measurement": "Crystalline form after grinding", "setting": "[1]; listed as Form B", "result": "partially converts to Form A"},
      {"measurement": "Solubility (mg/mL) FaSSIF", "setting": "[3]; [12]", "result": 52.0, "unit": "mg/mL"},
      {"measurement": "Solubility (mg/mL) eSSIF", "setting": "[3]; equilibration 4 h, HPLC", "result": 29.2, "unit": "mg/mL"},
      {"measurement": "Morphology", "setting": "[7]", "result": "needle-like crystals"}
    ]},
    {"smiles": "Cl.c1ccc2cc([C@]34CNC[C@H]3C4)ccc2c1", "note": "[Form C, (1R,5S)-1-(naphthalen-2-yl)-3-azabicyclo[3.1.0]hexane hydrochloride]", "values": [
      {"measurement": "Crystalline form after storage", "setting": "[8]", "result": "converted to a mixture of Form A and Form B"},
      {"measurement": "Crystalline form after storage", "setting": "[9]", "result": "converted to Form A"}
    ]},
    {"smiles": "Cl.c1ccc2cc([C@]34CNC[C@H]3C4)ccc2c1", "note": "[prior art Form A, (1R,5S)-1-(naphthalen-2-yl)-3-azabicyclo[3.1.0]hexane hydrochloride, reference compound]", "values": [
      {"measurement": "Crystallinity after grinding", "setting": "[1]", "result": "decreased obviously"},
      {"measurement": "Crystallinity after grinding", "setting": "[1]; listed as Form A", "result": "obvious decrease of crystallinity"},
      {"measurement": "Solubility (mg/mL) FaSSIF", "setting": "[3]; [12]", "result": 46.9, "unit": "mg/mL"},
      {"measurement": "Solubility (mg/mL) eSSIF", "setting": "[3]; equilibration 4 h, HPLC", "result": 36.0, "unit": "mg/mL"},
      {"measurement": "Morphology", "setting": "[7]", "result": "needle-like crystals"}
    ]}
  ]
}
